Experimental data published in patent US20220387602A1, “BIFUNCTIONAL DEGRADERS AND THEIR METHODS OF USE” (NOVARTIS AG, priority 2019, published 2022).
“Also recorded” adds a separate entry of the source.

Assays:
[1] = target: T1, BTK (Homo sapiens, UniProt Q06187); assay: BTK-GFP protein abundance flow cytometry assay in HEK293A; assay type: cell-based
T1 construct: the BTK open reading frame (ORF) was first shuttled from a pcDNA-DEST40-BTK vector; expressed in transfected cells; host or cells: HEK293A (Invitrogen R70507), lentiviral transduction, blasticidin selection
Description: Degradation of BTK, CSK, ABL2, EPHA4 and YES1 was measured in HEK293A cells (Invitrogen R70507) expressing either BTK-GFP and RFP, CSK-GFP and mCherry, GFP-ABL2 and mCherry, EPHA4-GFP and mCherry, or YES1-GFP and mCherry from a stably integrated bicistronic BTK-GFP-iresRFP, CSK-GFP-CHYSEL-mCherry, GFP-ABL2-CHYSEL-mCherry, EPHA4-GFP-CHYSEL-mCherry, or YES1-GFP-CHYSEL-mCherry construct, respectively. Reduction of the GFP signal measured by flow cytometry served as readout for BTK, CSK, ABL2, EPHA4 and YES1 degradation after degrader treatment.
The mix was incubated for another 20 min at RT and then added on 1 mL of a freshly prepared suspension of HEK293FT cells in a well of a 6-well plate (concentration 1.2×10^6 cells/mL). 1 day after transfection, the medium was replaced with 1.5 mL of complete growth medium (DMEM high Glucose+10% FCS+1% L-Glutamine+1% NEAA+1% NaPyr.). 48 h post transfection supernatant containing viral transducing particles was collected and frozen at −80° C.
Infection was performed with 90 μL of collected supernatant containing viral transducing particles in 1 mL medium including 8 µg/mL polybrene. 24 h post infection, stably transfected cells were selected with blasticidin at a concentration of 8 μg/mL referred to as stable HEK293A sensor cells.
Stable HEK293A sensor cells were maintained in complete growth medium (DMEM high Glucose+10% FCS+1% L-Glutamine+1% NEAA+1% NaPyr.) with passaging performed twice per week. On Day 0, stable HEK293A sensor cells were seeded at 10,000 cells/well in a 96-well microtiter plate in 260 μL complete medium. On Day 1, cells were treated in duplicate with 10-point 1:3 dilution series of compound using the HP D300 Digital Dispenser (Tecan). DMSO concentrations were normalized across the plate to 0.1%. On Day 2, after 24 h of incubation at 37° C., treatment media was discarded, cells rinsed with 100 μL/well PBS and then detached using 40 μL trypsin/well for 5 min. Trypsin was neutralized with 100 μL/well PBS+20% FCS). Flow cytometry was performed on the samples using the BD FACS CANTO II (Becton Dickinson). Cell identification was then performed using forward (FSC) vs. side scatter (SSC) plots. Single cell discrimination is performed using SSC-Width (SSC-W) vs. SSC-Height (SSC-H) plots. Median GFP values for 5,000 single cells are used to determine BTK levels. Median GFP values from HEK293 Å-iresRFP are used as a background signal and thus defining 0% BTK signal. Median GFP values from DMSO treated HEK293 Å-BTK-GFP-iresRFP are used to define 100% BTK signal for subsequent DC50 curves (concentration at 50% BTK degradation). GFP and RFP are read in the channels called FITC and PE, respectively.
Concentration response curves plotting relative reduction of the GFP signal (measured by flow cytometry) versus 10 compound concentrations (starting concentration 10 μM, 3 fold dilution steps) of the compounds allowed generation of DC50 values. Protein abundance measured for the second generation vectors having a chysel was done in close analogy to the above described method for measuring BTK abundance.
Table 5 columns are defined as follows: DC50 refers to the concentration at which 50% maximal degradation was observed; deg Amax is the extent of degradation and the value refers to the % protein remaining at the concentration at which maximum degradation is seen.

[2] = target: T2, CRBN (Homo sapiens, UniProt Q96SW2); assay: CRBN displacement assay Format 1 (fluorescence polarization, BodipyFL-lenalidomide probe Compound HH); assay type: binding
Description: (§1) Compounds were tested in the following biochemical and cellular assays.
(§2) BodipyFL conjugated lenalidomide compound HH was used as a fluorescent probe. […] Protein and substrate were diluted in assay buffer.
All protein and probe containing solutions were handled in ‘Maxymum Recovery’ tubes (Axygen Scientific Inc., Union City, USA). […] For the plate measurements a PHERAstar reader (BMG Labtech, Offenburg, Germany) was used. The instrument was equipped with a specific optics module containing filters and dichoic mirrors for measuring the fluorescence polarization-type assay. With this module, the fluorescence of the Bodipy FL-based probe was excited at 485 nm and the emissions of the product were measured at 520 nm. The fluorescence in each well was excited by 10 flashes per measurement.
For the determination of AC50 values, the assays were performed at room temperature in 384-well plates with a total assay volume of 10.1 μL per well. The test compound was dissolved in 90% (v/v) DMSO/water. For the assays, 100 nL of the 90% (v/v) DMSO/water solution or compound solution were added per well, followed by the addition of 5 μL protein solution (protein in 1× assay buffer).
(§3) The final assay concentration of the protein was nominally 100 nM. After 45 minutes of pre-incubation at room temperature, the competition for binding was started by the addition of 5 μL probe solution (probe dissolved in assay buffer). The final concentration of the probes in the assays was 5 nM. After the addition of the probe solution, the final DMSO concentration in the assay was 0.9% (v/v). The effect of the probe on the pre-established compound-protein complex equilibrium was determined after 45 minutes (t=45 min). The AC50 value was calculated from the plot of percentage of protein saturation versus the test compound concentration by a logistics fit according to: y=A^2+(A^1−A^2)/(1+(x/AC50)^p), where y is the %-saturation value at the test compound concentration, x. A^1 is the lowest saturation value, i.e., 0%, and A^2 the maximum saturation value, i.e. 100%. The exponent, p, is the Hill coefficient.

[3] = target: T2, CRBN; assay: CRBN displacement assay Format 2a (fluorescence polarization, 1536-well, Envision reader); assay type: binding
Description: as §1, §2
The fluorescence of the Bodipy FL-based probe was excited at 480 nm and the emissions of the product were measured at 535 nm. The fluorescence in each well was excited by 30 flashes per measurement.
For the determination of AC50 values, assays were performed at room temperature in 1536-well plates with a total assay volume of 6.03 μL per well. The test compounds were dissolved and diluted in 100% DMSO. For the assays, 30 nL of DMSO or compound solution were added per well, followed by the addition of 3 μL protein solution (80 nM protein in 1× assay buffer).
as §3, with “nominally 40” for “nominally 100”, “of 3” for “of 5”, “solution (10 nM probe” for “solution (probe”, “the probe” for “the probes”, “was 0.5%” for “was 0.9%”

[4] = concentration at which 50% of reference probe Compound HH is displaced, 40 nM protein, 5 nM probe, read-out: CRBN AC50 [μM] Format 2a
[5] = concentration at which 50% of reference probe Compound HH is displaced, 100 nM protein, 5 nM probe, Table 4, read-out: CRBN AC50 [μM] Format 1

T1 sequence (Q06187 whole entry): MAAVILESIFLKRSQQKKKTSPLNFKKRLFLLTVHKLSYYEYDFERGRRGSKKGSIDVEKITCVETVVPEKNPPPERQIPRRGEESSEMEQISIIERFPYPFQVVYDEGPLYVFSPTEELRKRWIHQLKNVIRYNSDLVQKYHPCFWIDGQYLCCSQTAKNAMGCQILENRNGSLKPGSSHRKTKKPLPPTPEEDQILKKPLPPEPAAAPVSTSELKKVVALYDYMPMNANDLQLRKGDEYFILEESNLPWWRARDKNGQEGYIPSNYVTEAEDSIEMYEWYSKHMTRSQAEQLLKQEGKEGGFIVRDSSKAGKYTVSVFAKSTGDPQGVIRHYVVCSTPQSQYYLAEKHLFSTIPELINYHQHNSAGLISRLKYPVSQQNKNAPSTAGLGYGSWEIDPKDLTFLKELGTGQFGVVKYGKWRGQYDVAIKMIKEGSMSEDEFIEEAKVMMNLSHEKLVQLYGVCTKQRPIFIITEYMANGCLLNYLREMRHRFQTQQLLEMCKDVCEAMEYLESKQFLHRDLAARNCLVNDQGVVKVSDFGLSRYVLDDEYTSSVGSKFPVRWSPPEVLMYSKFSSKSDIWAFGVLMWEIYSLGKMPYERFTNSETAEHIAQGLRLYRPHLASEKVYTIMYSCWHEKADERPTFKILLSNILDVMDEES
T2 sequence (Q96SW2 whole entry): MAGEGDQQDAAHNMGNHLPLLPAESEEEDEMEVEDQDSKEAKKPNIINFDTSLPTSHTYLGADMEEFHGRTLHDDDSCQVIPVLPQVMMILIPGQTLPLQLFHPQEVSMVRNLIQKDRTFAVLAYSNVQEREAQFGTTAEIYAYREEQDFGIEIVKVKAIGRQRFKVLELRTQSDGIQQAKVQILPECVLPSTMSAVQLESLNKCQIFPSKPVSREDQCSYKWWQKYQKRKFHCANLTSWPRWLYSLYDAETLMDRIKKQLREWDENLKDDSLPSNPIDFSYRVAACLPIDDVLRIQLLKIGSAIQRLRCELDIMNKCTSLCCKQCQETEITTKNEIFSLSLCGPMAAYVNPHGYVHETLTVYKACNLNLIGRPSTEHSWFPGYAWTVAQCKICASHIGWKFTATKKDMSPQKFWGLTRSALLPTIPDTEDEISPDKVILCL

Row | SMILES | AC50 [3, 4] [µM] | AC50 [2, 5] [µM] | also measured
1 | COc1ccc(C(=O)N2CCOC3(CCN(Cc4ccc(-c5cc6c(-c7cc(F)cc(NC(=O)c8ccc(C(C)(C)O)cc8F)c7C)ncnc6[nH]5)cc4)CC3)C2)cc1N1CCC(=O)NC1=O [Compound 01, N-(3-(6-(4-((4-(3-(2,4-dioxotetrahydropyrimidin-1(2H)-yl)-4-methoxybenzoyl)-1-oxa-4,9-diazaspiro[5.5]undecan-9-yl)methyl)phenyl)-7H-pyrrolo[2,3-d]pyrimidin-4-yl)-5-fluoro-2-methylphenyl)-2-fluoro-4-(2-hydroxypropan-2-yl)benzamide] | – | – | BTK degradation Amax ([1]; % protein remaining at the concentration at which maximum degradation is seen, HEK293A, 24 h): 98%; DC50 ([1]; concentration at which 50% maximal degradation was observed, HEK293A BTK-GFP sensor cells, 24 h): > 3330 nM; BTK degradation ([1]; extent of BTK degradation as stated in the text): no significant BTK degradation was observed; also recorded: no degradation of BTK was observed; AC50 [2]: 1.59 µM
2 | Cc1ccc(OCC(=O)O)cc1N1CCC(=O)NC1=O [ILB-20, 2-(3-(2,4-Dioxotetrahydropyrimidin-1(2H)-yl)-4-methylphenoxy)acetic acid] | 2.01 | 5.37 | –
3 | Cc1ccc(C(=O)O)cc1N1CCC(=O)NC1=O [ILB-24, 3-(2,4-dioxotetrahydropyrimidin-1(2H)-yl)-4-methylbenzoic acid] | 0.68 | 2.85 | –
4 | O=C1CCN(c2cc(C(=O)O)ccc2Cl)C(=O)N1 [ILB-25, 4-chloro-3-(2,4-dioxotetrahydropyrimidin-1(2H)-yl)benzoic acid] | 0.48 | 1.98 | –
5 | COc1ccc(C(=O)O)cc1N1CCC(=O)NC1=O [ILB-26, 3-(2,4-dioxotetrahydropyrimidin-1(2H)-yl)-4-methoxybenzoic acid] | 1.26 | 2.92 | –
6 | O=C1CCN(c2cc(C(=O)O)ccc2F)C(=O)N1 [ILB-27, 3-(2,4-dioxotetrahydropyrimidin-1(2H)-yl)-4-fluorobenzoic acid] | 0.74 | 3.03 | –
7 | O=C1CCN(c2cccc(C(=O)O)c2)C(=O)N1 [ILB-28, 3-(2,4-dioxotetrahydropyrimidin-1(2H)-yl)benzoic acid] | 1.3 | 3.41 | –
8 | O=C1CCN(c2ccc(C(=O)O)cc2)C(=O)N1 [ILB-31] | 5.1 | 9.64 | –
9 | C#Cc1cccc(N2CCC(=O)NC2=O)c1 [ILB-33, 1-(3-ethynylphenyl)dihydropyrimidine-2,4(1H,3H)-dione] | 2.68 | 6.52 | –
10 | C=CCOc1cccc(N2CCC(=O)NC2=O)c1 [ILB-34, 1-(3-(allyloxy)phenyl)dihydropyrimidine-2,4(1H,3H)-dione] | 1.91 | 3.65 | –
11 | O=C1CCN(c2c(F)cc(C#CC3CCNCC3)cc2F)C(=O)N1 [ILB-38, 1-(2,6-difluoro-4-(piperidin-4-ylethynyl)phenyl)dihydropyrimidine-2,4(1H,3H)-dione] | 6.02 | 8.44 | –
12 | O=C1CCN(c2ccc(C#CCN3CCOC4(CCNCC4)C3)cc2)C(=O)N1 [ILB-40, 1-(4-(3-(1-oxa-4,9-diazaspiro[5.5]undecan-4-yl)prop-1-yn-1-yl)phenyl)dihydropyrimidine-2,4(1H,3H)-dione] | 3.45 | 12.3 | –
13 | CC(C)(C)OC(=O)NCC#Cc1cc(F)c(N2CCC(=O)NC2=O)c(F)c1 [ILB-43, tert-Butyl (3-(4-(2,4-dioxotetrahydropyrimidin-1(2H)-yl)-3,5-difluorophenyl)prop-2-yn-1-yl)carbamate] | – | – | AC50 [3]: 2.93 µM; AC50 [2]: 2.99 µM
14 | Cc1ccc(S(=O)(=O)NCCCCCN)cc1N1CCC(=O)NC1=O [ILB-53, N-(5-aminopentyl)-3-(2,4-dioxotetrahydropyrimidin-1(2H)-yl)-4-methylbenzenesulfonamide] | 2.16 | 14.9 | –
15 | O=C1CCN(c2ccc(OCC(=O)N3CCC(OC4CCNCC4)CC3)cc2)C(=O)N1 [ILB-55, 1-(4-(2-Oxo-2-(4-(piperidin-4-yloxy)piperidin-1-yl)ethoxy)phenyl)dihydropyrimidine-2,4(1H,3H)-dione] | – | – | AC50 [3]: 4.04 µM; AC50 [2]: 14.4 µM
16 | COc1ccc(C(=O)N2CCC3(CCNCC3)CC2)cc1N1CCC(=O)NC1=O [ILB-56, 1-(2-methoxy-5-(3,9-diazaspiro[5.5]undecane-3-carbonyl)phenyl)dihydropyrimidine-2,4(1H,3H)-dione] | – | – | AC50 [3]: 0.23 µM; AC50 [2]: 1.26 µM
17 | COc1ccc(C(=O)N2CCC(OC3CCNCC3)CC2)cc1N1CCC(=O)NC1=O [ILB-59, 1-(2-methoxy-5-(4-(piperidin-4-yloxy)piperidine-1-carbonyl)phenyl)dihydropyrimidine-2,4(1H,3H)-dione] | – | – | AC50 [3]: 0.34 µM; AC50 [2]: 1.36 µM
18 | COc1cc(C(=O)O)ccc1N1CCC(=O)NC1=O [ILB-81, 4-(2,4-dioxotetrahydropyrimidin-1(2H)-yl)-3-methoxybenzoic acid] | 2.38 | 12.3 | –
